Here are results for two compounds from patent US8168231B2, “Antimicrobial composition useful for preserving wood” (Rohm and Haas Company, priority 2006, dated 2012).

Where two headings read alike, the source gives them in different places.

Holding throughout (assay type): cell-based
Assay [1] concerns Pseudomonas aeruginosa (Ps. aeruginosa—ATCC # 9027). As to the kind of experiment: Synergy test, microtiter plate high resolution MIC assay (M9GY medium). The conditions noted are these: ppm AI; for MIC: Pseudomonas aeruginosa, read-out: MIC of component acting alone (Ca or Cb). The text has this: (§1) One measure of synergism is the industrially accepted method described by Kull, F. C.; Eisman, P. C.; Sylwestrowicz, H. D. and Mayer, R. L., in Applied Microbiology 9:538-541 (1961), using the ratio determined by the formula: Ca/CA+Cb/CB=Synergy Index (“SI”) wherein: • CA=concentration of compound A (first component) in ppm, acting alone, which produced an end point (MIC of Compound A). • Ca=concentration of compound A in ppm, in the mixture, which produced an end point. • CB=concentration of compound B (second component) in ppm, acting alone, which produced an end point (MIC of Compound B). • Cb=concentration of compound B in ppm, in the mixture, which produced an end point.
(§2) When the sum of Ca/CA and Cb/CB is greater than one, antagonism is indicated. […] The lower the SI, the greater the synergy shown by that particular mixture. The minimum inhibitory concentration (MIC) of an antimicrobial compound is the lowest concentration tested under a specific set of conditions that prevents the growth of added microorganisms.
(§3) Synergy tests were conducted using standard microtiter plate assays with media designed for optimal growth of the test microorganism. Minimal salt medium supplemented with 0.2% glucose and 0.1% yeast extract (M9GY medium) was used for bacteria testing; Potato Dextrose Broth (PDB medium) was used for yeast and mold testing. In this method, a wide range of combinations of microbicides was tested by conducting high resolution MIC assays in the presence of various concentrations of biocides. High resolution MICs were determined by adding varying amounts of microbicide to one column of a microtitre plate and doing subsequent ten-fold dilutions using an automated liquid handling system to obtain a series of end points ranging of active ingredient. The synergy of the combinations of the present invention was determined against two bacteria, Pseudomonas aeruginosa (Ps. aeruginosa—ATCC # 9027) and Staphylococcus aureus (S. aureus—ATCC # 6538), a yeast, Candida albicans (C. albicans—ATCC # 10231), and a mold, Aspergillus niger (A. niger—ATCC 16404). The bacteria were used at a concentration of about 1-6×10^6 bacteria per mL and the yeast and mold at 1−5×10^5 fungi per mL. These microorganisms are representative of natural contaminants in many consumer and industrial applications. […] (yeast and mold) or 30° C. (bacteria).

For assay [2], the system named is Staphylococcus aureus (S. aureus—ATCC # 6538). The description is as above. The conditions noted are these: ppm AI; for MIC: Staphylococcus aureus, read-out: MIC of component acting alone (Ca or Cb).
Description: as §1, §2, §3

Assay [3] has as its system Candida albicans (C. albicans—ATCC # 10231). As to the kind of experiment: Synergy test, microtiter plate high resolution MIC assay (PDB medium). As to conditions: ppm AI; for MIC: Candida albicans, read-out: MIC of component acting alone (Ca or Cb).
Description: as §1, §2, §3

Assay [4] deals with Aspergillus niger (A. niger—ATCC 16404). Described as above. The conditions noted are these: ppm AI; for MIC: Aspergillus niger, read-out: MIC of component acting alone (Ca or Cb).
Description: as §1, §2, §3

One may read the MIC as the lowest concentration that inhibits growth of the organism. As to `CCCCCCCCn1sc(Cl)c(Cl)c1=O` [DCOIT, 4,5-dichloro-2-n-octyl-4-isothiazolin-3-one], the MIC in assay [1] (ATCC9027, 24 h, Table 1, contact time 24 hrs) was 3 µg/mL; in assay [1] (ATCC9027, 24 h, Table 2, contact time 24 hrs) it was 2 µg/mL; in assay [1] (ATCC9027, 48 h, Table 1, contact time 48 hrs), 3 µg/mL; in assay [1] (ATCC9027, 48 h, Table 2, contact time 48 hrs), 4.25 µg/mL; in assay [2] (ATCC6538, 24 h, Table 1, contact time 24 hrs), 0.5 µg/mL; in assay [2] (ATCC6538, 24 h, Table 2, contact time 24 hrs) it was 0.65 µg/mL. Moreover, the MIC in assay [2] (ATCC6538, 48 h, Table 1, contact time 48 hrs) was determined as 0.5 µg/mL; in assay [2] (ATCC6538, 48 h, Table 2, contact time 48 hrs), 0.65 µg/mL; in assay [3] (ATCC10231, Table 1, contact time 48 hrs), 1 µg/mL; in assay [3] (ATCC10231, Table 1, contact time 72 hrs), 1 µg/mL; in assay [4] (ATCC16404, 72 h, Table 1, contact time 3 days), 0.25 µg/mL; in assay [4] (ATCC16404, 72 h, Table 2, contact time 3 days), 0.0875 µg/mL. Besides, the MIC in assay [4] (ATCC16404, 168 h, Table 1, contact time 7 days) was determined as 0.25 µg/mL; in assay [4] (ATCC16404, 168 h, Table 2, contact time 7 days), 0.2 µg/mL.

On to “Monoethanolamine complex of copper carbonate [Cu-MEA]”, for which the “MIC of component acting alone (Ca or Cb)” value in assay [1] (Table 1, contact time 24 hrs) was found to be 120 ppm; in assay [1] (Table 1, contact time 48 hrs), 120 ppm; in assay [2] (Table 1, contact time 24 hrs), 80 ppm; in assay [2] (Table 1, contact time 48 hrs) it was 200 ppm; in assay [3] (Table 1, contact time 48 hrs) it was 200 ppm; in assay [3] (Table 1, contact time 72 hrs) it was 200 ppm. Also, the “MIC of component acting alone (Ca or Cb)” value is 300 ppm in assay [4] (Table 1, contact time 3 days) and 300 ppm in assay [4] (Table 1, contact time 7 days).
